In ChEMBL document CHEMBL4325859, “Research advances on anticancer activities of matrine and its derivatives: An updated overview” (Eur J Med Chem, 2019):
≈ marks a conversion by molar mass, not a printed value.

Columns and labels:
HT-29 [1] = assay: Antiproliferative activity against human HT-29 cells by MTT assay; type: functional, cell-based
KYSE-150 cell line [2] = assay: Antiproliferative activity against human KYSE-150 cells assessed as cell viability at 2 mg/ml after 24 hrs by MTT assay relative to control; type: functional; conditions: KYSE-150, 24 h, read-out: Activity
M21 [3] = assay: Growth inhibition of human M21 cells after 48 hrs by MTT assay; type: functional, cell-based; conditions: M21, 48 h
HT-29 [4] = assay: Growth inhibition of human HT-29 cells at 4 ml/L after 48 hrs by MTT assay relative to control; type: functional
RPMI-8226 [5] = assay: Antiproliferative activity against human RPMI8226 cells after 48 hrs by MTT assay; type: functional, cell-based; conditions: RPMI-8226, 48 h
HL-60 [6] = assay: Induction of apoptosis in human HL60 cells after 24 hrs by Annexin V-FITC/propidium iodide staining based flow cytometry relative to control; type: functional
MG-63 [7] = assay: Growth inhibition of human MG63 cells after 48 hrs by MTT assay; type: functional, cell-based; conditions: MG-63, 48 h
RPMI-8226 [8] = assay: Growth inhibition of human RPMI8226 cells at 1500 mg/L after 48 hrs by MTT assay relative to control; type: functional; conditions: RPMI-8226, 48 h, read-out: GI
[9] = Growth inhibition of human GRC1 cells at 0.3 g/L after 48 hrs by MTT assay relative to control; type: functional; conditions: read-out: GI
[10] = Growth inhibition of human GRC1 cells at 0.3 g/L after 96 hrs by MTT assay relative to control; type: functional; conditions: read-out: GI
U2OS = assay: Growth inhibition of human U2OS cells after 48 hrs by MTT assay; type: functional, cell-based
HepG2 [11] = assay: Antiproliferative activity against human HepG2 cells at 1 mg/ml after 48 hrs by MTT assay relative to control; type: functional
SGC-7901 = assay: Induction of apoptosis in human SGC7901 cells at 60 mg/ml after 48 hrs by propidium iodide staining based flow cytometry (reference value: 3.54 +/- 0.47%); type: functional
UMR108 = assay: Growth inhibition of rat UMR108 cells assessed as cell proliferation at 1.5 mg/ml after 72 hrs by MTT assay (reference value: 0.403 +/- 0.009%); type: functional; conditions: UMR108, 72 h, read-out: Activity
[12] = Growth inhibition of human GRC1 cells at 1 g/L after 96 hrs by MTT assay relative to control; type: functional; conditions: read-out: GI
MG-63 [13] = assay: Growth inhibition of human MG63 cells at 3.2 mg/ml after 48 hrs by MTT assay relative to control; type: functional; conditions: MG-63, 48 h, read-out: GI
HT-29 [14] = assay: Synergistic growth inhibition of human HT-29 cells at 1 mg/ml cotreated with 5 ug/ml irinotecan by MTT assay relative to control; type: functional
HT-29 [15] = assay: Growth inhibition of human HT-29 cells at 32 ml/L after 24 hrs by MTT assay relative to control; type: functional
HepG2 [16] = assay: Antiproliferative activity against human HepG2 cells at 1 mg/ml after 72 hrs by MTT assay relative to control; type: functional
HepG2 [17] = assay: Induction of apoptosis in human HepG2 cells at 1 mg/ml by Annexin V-FITC/propidium iodide staining based flow cytometry (reference value: 0.14%); type: functional
PANC-1 = assay: Induction of apoptosis in human PANC1 cells at 0.75 mg/ml by flow cytometry (reference value: 4.13%); type: functional
D341 cell line = assay: Induction of apoptosis in human D341 cells at 0.5 to 2 mg/ml after 24 to 72 hrs by Annexin V-FITC/propidium iodide staining based flow cytometry (reference value: 5.74 +/- 0.09%); type: functional
[18] = Growth inhibition of human GRC1 cells at 0.5 g/L after 24 hrs by MTT assay relative to control; type: functional; conditions: read-out: GI
[19] = Antiproliferative activity against human GBC-SD cells after 48 hrs by MTT assay; type: functional, cell-based
PC-3 = assay: Induction of apoptosis in human PC3 cells assessed as late apoptotic cells at […] (reference value: 2.5%); type: functional
U-937 = assay: Antiproliferative activity against human U937 cells after 24 hrs by MTT assay; type: functional, cell-based; conditions: U-937, 24 h
Ca-Ski = assay: Antiproliferative activity against human CaSki cells after 48 hrs by CCK8 assay; type: functional, cell-based
KYSE-150 cell line [20] = assay: Antiproliferative activity against human KYSE-150 cells assessed as cell viability at 1 mg/ml after 24 hrs by MTT assay relative to control; type: functional; conditions: KYSE-150, 24 h, read-out: Activity
RPMI-8226 [21] = assay: Induction of apoptosis in human RPMI8226 cells at 1500 mg/L after 48 hrs by Annexin V/propidium iodide staining based flow cytometry (reference value: 3.02 +/- 1.19%); type: functional
[22] = Growth inhibition of human GRC1 cells at 0.8 g/L after 72 hrs by MTT assay relative to control; type: functional; conditions: read-out: GI
KYSE-150 cell line [23] = assay: Antiproliferative activity against human KYSE-150 cells assessed as cell viability at 3 mg/ml after 24 hrs by MTT assay relative to control; type: functional; conditions: KYSE-150, 24 h, read-out: Activity
HOS = assay: Growth inhibition of human HOS cells at 3.2 mg/ml after 48 hrs by MTT assay relative to control; type: functional; conditions: read-out: GI
BXPC-3 [24] = assay: Induction of apoptosis in human BxPC3 cells at 0.25 mg/ml by flow cytometry (reference value: 2.81%); type: functional
BXPC-3 [25] = assay: Induction of apoptosis in human BxPC3 cells at 0.75 mg/ml by flow cytometry (reference value: 2.81%); type: functional
LoVo = assay: Antiproliferative activity against human LoVo cells after 24 hrs by MTT assay; type: functional, cell-based
[26] = Growth inhibition of human GRC1 cells at 0.3 g/L after 24 hrs by MTT assay relative to control; type: functional; conditions: read-out: GI
CCRF-CEM = assay: Antiproliferative activity against human CCRF-CEM cells after 24 hrs by WST1 assay; type: functional, cell-based
EJ = assay: Antiproliferative activity against human EJ cells after 48 hrs by CCK8 assay; type: functional, cell-based
[27] = Growth inhibition of human GRC1 cells at 0.3 g/L after 72 hrs by MTT assay relative to control; type: functional; conditions: read-out: GI
M21 [28] = assay: Induction of apoptosis in human M21 cells at 0.2 mg/ml after 48 hrs by Annexin V-FITC/propidium iodide staining based flow cytometry relative to control; type: functional
HL-60 [29] = assay: Antiproliferative activity against human HL60 cells after 24 hrs by MTT assay; type: functional, cell-based; conditions: HL-60, 24 h
HT-29 [30] = assay: Growth inhibition of human HT-29 cells at 32 mg/ml after 48 hrs by MTT assay relative to control; type: functional; conditions: HT-29, 48 h, read-out: GI
M21 [31] = assay: Growth inhibition of human M21 cells assessed as cell viability at 5 mg/ml after 48 hrs by MTT assay (reference value: 98%); type: functional; conditions: M21, 48 h, read-out: Activity
DU-145 = assay: Growth inhibition of human DU145 cells at 6 g/L after 72 hrs relative to control; type: functional; conditions: DU-145, 72 h, read-out: GI
HT-29 [32] = assay: Growth inhibition of human HT-29 cells at 8 ml/L after 36 hrs by MTT assay relative to control; type: functional

## O=C1CCC[C@@H]2[C@H]3CCCN4CCC[C@@H](CN12)[C@@H]34 [MATRINE]
HT-29 [1]
  IC50: 0.0286 mM
KYSE-150 cell line [2]
  viability at 2000 µg/mL: 53.7%
M21 [3]
  IC50: 3.1 mM
HT-29 [4]
  growth inhibition (GI): 54.22%
RPMI-8226 [5]
  IC50: 1640 µg/mL (≈ 6.6 mM)
HL-60 [6]
  Activity: 41.1%
MG-63 [7]
  IC50: 7.05 mM
RPMI-8226 [8]
  inhibition of growth at 1500 µg/mL: 39.4%
[9]
  inhibition of growth at 300 µg/mL: 8.8%
[10]
  inhibition of growth at 300 µg/mL: 18.4%
U2OS
  IC50: 7.25 mM
HepG2 [11]
  Activity: 14.81%
SGC-7901
  Activity: 22.34%
UMR108
  growth at 1500 µg/mL: 0.147%
[12]
  inhibition of growth at 1000 µg/mL: 45.8%
MG-63 [13]
  inhibition of growth at 3200 µg/mL: 86%
HT-29 [14]
  growth inhibition (GI): 87.61%
HT-29 [15]
  growth inhibition (GI): 71.62%
HepG2 [16]
  Activity: 18.25%
HepG2 [17]
  Activity: 34.36%
PANC-1
  Activity: 24.56%
D341 cell line
  Activity: 56.1%
[18]
  inhibition of growth at 500 µg/mL: 11.5%
[19]
  IC50: 2 mM
PC-3
  Activity: 20.5%
U-937
  IC50: 0.00237 mM
Ca-Ski
  IC50: 5.8 mM
KYSE-150 cell line [20]
  viability at 1000 µg/mL: 69.8%
RPMI-8226 [21]
  Activity: 31.1%
[22]
  inhibition of growth at 800 µg/mL: 25.4%
KYSE-150 cell line [23]
  viability at 3000 µg/mL: 29.6%
HOS
  inhibition of growth at 3200 µg/mL: 57%
BXPC-3 [24]
  Activity: 9.9%
BXPC-3 [25]
  Activity: 48.83%
LoVo
  IC50: 4.63 mM
[26]
  inhibition of growth at 300 µg/mL: 6.3%
CCRF-CEM
  IC50: 11.7 mM
EJ
  IC50: 5.09 mM
[27]
  inhibition of growth at 300 µg/mL: 14.9%
M21 [28]
  Activity: 24.1%
HL-60 [29]
  IC50: 0.00366 mM
HT-29 [30]
  inhibition of growth at 32000 µg/mL: 84.2%
M21 [31]
  viability at 5000 µg/mL: 20%
DU-145
  inhibition of growth at 6000 µg/mL: 90%
HT-29 [32]
  growth inhibition (GI): 58.2%
